Columns and labels:
rat NaP2b (SLC34A2) = biological target: T1, rat NaP2b (SLC34A2) (Rattus norvegicus, UniProt Q9JJ09); test: Inhibition of NaP2b-mediated Pi (33P) uptake in transfected HEK293 cells, rat NaP2b; format: cell-based; details: 33P Pi uptake, 0.1 mM phosphate, value given as pIC50 range
T1 construct: host or cells: HEK293
T1 sequence (Q9JJ09 1-695): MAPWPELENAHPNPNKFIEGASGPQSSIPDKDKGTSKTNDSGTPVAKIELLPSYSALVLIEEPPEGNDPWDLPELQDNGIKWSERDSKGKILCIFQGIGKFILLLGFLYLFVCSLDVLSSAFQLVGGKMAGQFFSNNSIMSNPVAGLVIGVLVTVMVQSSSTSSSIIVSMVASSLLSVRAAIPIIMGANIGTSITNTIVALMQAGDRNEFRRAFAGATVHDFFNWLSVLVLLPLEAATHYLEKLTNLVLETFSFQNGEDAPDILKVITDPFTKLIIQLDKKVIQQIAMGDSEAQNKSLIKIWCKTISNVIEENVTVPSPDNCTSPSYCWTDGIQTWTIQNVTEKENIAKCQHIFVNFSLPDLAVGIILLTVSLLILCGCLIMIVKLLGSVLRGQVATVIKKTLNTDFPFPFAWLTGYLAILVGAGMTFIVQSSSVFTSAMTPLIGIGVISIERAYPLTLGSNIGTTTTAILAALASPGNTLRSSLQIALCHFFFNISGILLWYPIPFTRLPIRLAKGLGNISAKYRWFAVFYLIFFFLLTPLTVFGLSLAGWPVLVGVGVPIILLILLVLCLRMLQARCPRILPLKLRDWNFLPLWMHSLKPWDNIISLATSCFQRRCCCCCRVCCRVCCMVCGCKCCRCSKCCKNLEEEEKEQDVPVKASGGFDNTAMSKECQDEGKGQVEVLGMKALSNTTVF
Outline: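 HEK293 cells were transiently transfected with NaP2b cDNA using Lipofectamine and grown near confluence. Compounds were tested at twelve concentrations from 0.1 nM to 30 uM in duplicate, and 33P-phosphate uptake was counted by scintillation after lysis. Results are expressed as pIC50.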

human NaP2b (SLC34A2) = biological target: T2, human NaP2b (SLC34A2) (Homo sapiens, UniProt O95436); test: Inhibition of NaP2b-mediated Pi (33P) uptake in transfected HEK293 cells, human NaP2b; format: cell-based; details: for IC50: read-out: pIC50 range for human NaP2b (converted)
T2 construct: host or cells: HEK293
T2 sequence (O95436 1-690): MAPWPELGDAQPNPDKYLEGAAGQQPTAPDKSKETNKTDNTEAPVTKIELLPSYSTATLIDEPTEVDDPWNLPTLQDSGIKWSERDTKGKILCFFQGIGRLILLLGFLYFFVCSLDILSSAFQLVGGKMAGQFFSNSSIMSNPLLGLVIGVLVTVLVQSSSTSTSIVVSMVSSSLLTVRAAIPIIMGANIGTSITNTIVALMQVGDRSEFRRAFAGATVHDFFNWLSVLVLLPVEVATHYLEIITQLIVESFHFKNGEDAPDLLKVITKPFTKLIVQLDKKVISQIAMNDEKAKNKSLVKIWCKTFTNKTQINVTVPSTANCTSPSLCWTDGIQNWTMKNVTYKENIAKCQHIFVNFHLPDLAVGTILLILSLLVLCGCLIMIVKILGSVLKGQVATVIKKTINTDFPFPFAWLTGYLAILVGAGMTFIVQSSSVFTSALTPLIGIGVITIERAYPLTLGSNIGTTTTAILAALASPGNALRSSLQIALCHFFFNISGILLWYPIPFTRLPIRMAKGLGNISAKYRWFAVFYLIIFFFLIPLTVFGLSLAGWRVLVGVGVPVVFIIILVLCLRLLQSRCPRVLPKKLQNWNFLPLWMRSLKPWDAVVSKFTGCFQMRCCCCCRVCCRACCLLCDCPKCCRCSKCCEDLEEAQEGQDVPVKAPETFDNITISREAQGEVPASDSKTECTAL
Description: HEK293 cells were obtained from the American Type Culture collection and propagated per their instructions. Expression clones for rat and human NaP2b (SLC34A2) were obtained from Open Biosystems (Catalog numbers MRN1768-9510282, and MHS1010-99823026, respectively). The sequence of the human protein was mutated to insert a threonine after residue 37, and to introduce a N39D mutation.
The rate of phosphate (Pi) uptake into HEK293 cells was measured using a modification of the method described by Mohrmann et al. (Mohrmann, I., Mohrmann, M., Biber, J., and Murer, H. (1986) Am. J. Phys. 250(3 Pt 1):G323-30.) Transfected HEK293 cells were treated with a pharmacological agent to minimize endogenous PiT-mediated phosphate transport activity, such that the only remaining sodium-dependent phosphate transport activity is that which was bestowed by introduction of the NaP2b genes.
Cells were seeded into 96-well plates at 25,000 cells/well and cultured overnight. Lipofectamine 2000 (Invitrogen) was used to introduce the NaP2b cDNA, and the cells were allowed to approach confluence during a second overnight incubation. […] Cells were then overlayed with either choline uptake buffer or sodium uptake buffer (14 mM Tris, 137 mM sodium chloride, 5.4 mM KCl, 2.8 mM CaCl2, 1.2 mM MgSO4, 100 uM KH2PO4, PiT-silencing agent, 1 mg/mL Bovine Serum Albumin, pH 7.4) containing 6-9 uCi/mL ^33P orthophosphoric acid (Perkin Elmer) and test compound. Each compound was tested at twelve concentrations ranging from 0.1 nM to 30 uM. Assays were run in duplicate.
After incubation for 3-30 minutes at room temperature, assay mixtures were removed, and the cells were washed twice with ice cold stop solution (137 mM sodium chloride, 14 mM Tris, pH 7.4). Cells were lysed by addition of 20 μL 0.1% Tween 80 followed by 100 μL scintillation fluid, and counted using a TopCount (Perkin Elmer).
pIC50 (the negative log of the IC50) values of the test compounds were calculated using GraphPad Prism.

Molecule | IC50 (rat NaP2b (SLC34A2)) [nM] | IC50 (human NaP2b (SLC34A2)) [nM] | pIC50 range for rat Nap2b (rat NaP2b (SLC34A2)) | pIC50 range for human NaP2b (human NaP2b (SLC34A2); 33P Pi uptake, transfected HEK293 cells, 0.1 mM phosphate, value given as pIC50 range)
CN(CCN1CCOCC1)C(=O)c1cccc(C(=O)Nc2ccc(OC3CCC3)cc2-c2cc(C(=O)N[C@H]3CCCc4ccccc43)ccn2)c1 [Example 132, N1-(2-(4-(((S)-1,2,3,4-tetrahydronaphthalen-1-yl)carbamoyl)pyridin-2-yl)-4-cyclobutoxyphenyl)-N3-methyl-N3-(2-morpholinoethyl)isophthalamide] | < 1000 | < 1000 |  | 
COCCOCCOCCOCCOCCOCCOCCOC(=O)N1CCCN(CCN(C)C(=O)c2cccc(C(=O)Nc3ccc(N4CCCCC4)cc3-c3cc(C(=O)N[C@H]4CCCc5ccccc54)ccn3)c2)CC1 [Example 214, (S)-2,5,8,11,14,17,20-heptaoxadocosan-22-yl 4-(2-(N-methyl-3-(4-(piperidin-1-yl)-2-(4-(1,2,3,4-tetrahydronaphthalen-1-ylcarbamoyl)pyridin-2-yl)phenylcarbamoyl)benzamido)ethyl)-1,4-diazepane-1-carboxylate] | 1000 to 7940 | 1000 to 7940 |  | 
16-(3-(4-(16-(3-(4-(diethylamino)-2-(4-(3-(trifluoromethyl)benzylcarbamoyl)pyridin-2-yl)phenylcarbamoyl)phenyl)-4,7,10,13-tetraoxahexadecane)piperazine-1-carbonyl)phenyl)-4,7,10,13-tetraoxahexadecan-1-oic acid [Example 293] |  |  | 5.1-6.0 | 5.1-6.0
CCN(CC)c1ccc(NC(=O)c2cccc(C(=O)N(C)CCN3CCN(C(=O)COCCOCCOCCOCCOCCOCCOCCOC)CC3)c2)c(-c2cc(C(=O)N[C@H]3CCCc4ccccc43)ccn2)c1 [Example 227, (S)—N1-(2-(4-2,5,8,11,14,17,20,23-octaoxapentacosanepiperazin-1-yl)ethyl)-N3-(4-(diethylamino)-2-(4-(1,2,3,4-tetrahydronaphthalen-1-ylcarbamoyl)pyridin-2-yl)phenyl)-N1-methylisophthalamide] | 1000 to 7940 | 1000 to 7940 |  | 
CCN(CC)c1ccc(NC(=O)c2cccc(C(=O)N(C)CCN3CCCC[C@H]3C(=O)NCCOCCOCCOCCOCCOCCOCCOCCOC)c2)c(-c2cc(C(=O)NCc3cccc(C(F)(F)F)c3)ccn2)c1 [Example 201, (S)—N^1-(2-(2-(2,5,8,11,14,17,20,23-octaoxapentacosan-25-yl-carbamoyl)piperidin-1-yl)ethyl)-N^3-(4-(diethylamino)-2-(4-((3-(trifluoromethyl)benzyl)carbamoyl)pyridin-2-yl)phenyl)-N^1-methylisophthalamide] | 1000 to 7940 | 1000 to 7940 |  | 
O=C(O)CCSCc1cccc(C(=O)Nc2ccc(N3CCCCC3)cc2-c2cc(Nc3cccc(C(F)(F)F)c3)ncn2)c1 [Example 3.10, 3-((3-((4-(Piperidin-1-yl)-2-(6-((3-(trifluoromethyl)phenyl)amino)pyrimidin-4-yl)phenyl)carbamoyl)benzyl)thio)propanoic acid] | 1000 to 7940 | 10000 to 31600 |  | 

Now from value to molecule:

IC50 (rat NaP2b (SLC34A2)) [nM] | IC50 (human NaP2b (SLC34A2)) [nM] | pIC50 range for rat Nap2b (rat NaP2b (SLC34A2)) | pIC50 range for human NaP2b (human NaP2b (SLC34A2); 33P Pi uptake, transfected HEK293 cells, 0.1 mM phosphate, value given as pIC50 range) | Molecule
1000 to 7940 | 1000 to 7940 |  |  | CCN(CC)c1ccc(NC(=O)c2cccc(CCCOCCOCCOCCOCCNC(=O)N(C)CCOCCOCCOCCOCCOCCOCCOC)c2)c(-c2cc(C(=O)NCc3cccc(C(F)(F)F)c3)ccn2)c1 [Example 273, 2-(5-(diethylamino)-2-(3-(23-methyl-24-oxo-2,5,8,11,14,17,20,28,31,34,37-undecaoxa-23,25-diazatetracontan-40-yl)benzamido)phenyl)-N-(3-(trifluoromethyl)benzyl)isonicotinamide]
1000 to 7940 | 1000 to 7940 |  |  | CCN(CC)c1ccc(NC(=O)c2cccc(C(=O)N(C)CCN(CCOC)CCOCCOCCOCCC(=O)N(C)CCN3CCOCC3)c2)c(-c2cc(C(=O)NCc3cccc(C(F)(F)F)c3)ccn2)c1 [Example 338, N^1-(4-(Diethylamino)-2-(4-(3-(trifluoromethyl)benzylcarbamoyl)pyridin-2-yl)phenyl)-N^3-(3-(2-methoxyethyl)-16-methyl-18-morpholino-15-oxo-6,9,12-trioxa-3,16-diazaoctadecyl)-N^3-methylisophthalamide]
1000 to 7940 | 1000 to 7940 |  |  | O=C(O)CCOCCOCCOCCOCCCc1cccc(SCc2cccc(C(=O)Nc3ccc(N4CCCCC4)cc3-c3cc(C(=O)N[C@H]4CCCc5ccccc54)ccn3)c2)c1 [Example 247, 3-(2-(2-(2-(3-(3-((30S)-3-((2-(4-(((S)-1,2,3,4-tetrahydronaphthalen-1-yl)carbamoyl)pyridin-2-yl)-4-(piperidin-1-yl)phenyl)carbamoyl)benzylthio)phenyl)propoxy)ethoxy)ethoxy)ethoxy)propanoic acid]
1000 to 7940 | 1000 to 7940 |  |  | CCN(CC)c1ccc(NC(=O)c2cccc(CCCOCCOCCOCCOCCC(=O)NCCOCCOCCOCCOCCOCCOCCOCCOC)c2)c(-c2cc(C(=O)N[C@H]3CCCc4ccccc43)ccn2)c1 [Example 279]
1000 to 7940 | 1000 to 7940 |  |  | CCN(CC)c1ccc(NC(=O)c2cccc(CCCOCCOCCOCCOCCNC(=O)N(CCO)CCO)c2)c(-c2cc(C(=O)NCc3cccc(C(F)(F)F)c3)ccn2)c1 [Example 274, 2-(5-(diethylamino)-2-(3-(1-hydroxy-3-(2-hydroxyethyl)-4-oxo-8,11,14,17-tetraoxa-3,5-diazaicosan-20-yl)benzamido)phenyl)-N-(3-(trifluoromethyl)benzyl)isonicotinamide]
< 1000 | < 1000 |  |  | CCN(CC)c1ccc(NC(=O)c2cccc(CCCOCCOCCOCCOCCOCCC(=O)O)c2)c(-c2cc(C(=O)N[C@H]3CCCc4ccccc43)ccn2)c1 [Example 306, (S)-19-(3-(4-(diethylamino)-2-(4-(1,2,3,4-tetrahydronaphthalen-1-ylcarbamoyl)pyridin-2-yl)phenylcarbamoyl)phenyl)-4,7,10,13,16-pentaoxanonadecan-1-oic acid]
< 1000 | < 1000 |  |  | CN(CCN1CCC[C@H]1C(=O)NCCOCCOCCOCCC(=O)OC(C)(C)C)C(=O)c1cccc(C(=O)Nc2ccc(N3CCCCC3)cc2-c2cc(C(=O)N[C@H]3CCCc4ccccc43)ccn2)c1 [Example 192, tert-butyl 1-((S)-1-(2-(N-methyl-3-((4-(piperidin-1-yl)-2-(4-(((S)-1,2,3,4-tetrahydronaphthalen-1-yl)carbamoyl)pyridin-2-yl)phenyl)carbamoyl)benzamido)ethyl)pyrrolidin-2-yl)-1-oxo-5,8,11-trioxa-2-azatetradecan-14-oate]
